Reference: patent US10538528B2, “5H-pyrrolo[2,3-D]pyrimidin-6(7H)-one derivative” (Taiho Pharmaceutical Co., Ltd., priority 2016, dated 2020)

How the values were obtained:
[1] = system: RKO cells (human colon cancer cell lines); test: Cell growth inhibition study using RKO cells (CellTiter-Glo); assay type: cell-based; conditions: 72 h, 3 days
Description: The in vitro cell growth inhibition study using RKO cells (human colon cancer cell lines) was conducted as described below.
RKO cells (ATCC, Cat#: CRL-2577) cultured in a MEM medium (GIBCO, Cat#:10370-088) supplemented with 10% FBS, 1 mM L-glutamine (GIBCO, Cat#:25030), and 1 mM sodium pyruvate (GIBCO, Cat#:11360) were seeded in a 96-well flat bottom microplate (COSTAR, Cat#:3904) at 2×10^3 cells (150 μl) and cultured in an incubator containing 5% CO2 at 37° C. for 1 day. The compound according to the present invention subjected to serial dilution with dimethyl sulfoxide or dimethyl sulfoxide alone was added to a MEM medium containing 10% FBS, 1 mM L-glutamine, and 1 mM sodium pyruvate. The resultant medium containing the compound or dimethyl sulfoxide alone was added to the RKO cells in the culture plate by 50 μl/well at the final concentration of the compound to 10, 3, 1, 0.3, 0.1, 0.03, 0.01, 0.003, and 0 μM, respectively. Another RKO cell culture plate separately prepared was allowed to stand at room temperature for 30 minutes, then 100 μl of the medium was removed, and added 50 μl of CellTiter-Glo® 2.0 Assay (Promega, Cat#:G9242) to each well. After the plates were placed in the dark for 10 minutes, the luminescence level derived from viable cells in each well was measured by the Multimode Plate Reader (PerkinElmer, EnSpire). The cells treated with the compound or dimethyl sulfoxide alone were cultured at 37° C. in an incubator containing 5% CO2 for an additional 3 days. After incubation, the culture plate was placed at room temperature for 30 minutes, and 150 μl of the supernatant was removed from each well to adjust the amount of the remaining cell culture solution to 50 μl each. To 50 μl of the remaining cell culture solution, the equivalent amount of CellTiter-Glo® 2.0 Assay was added. After the cell culture plate was placed in the dark for 10 minutes, the luminescence level derived from viable cells in each well was assayed with the use of the Multimode Plate Reader. The cell growth rate was calculated by the formulae shown below and the concentration at which the cell growth rate became 50%; i.e., the concentration of the compound according to the present invention at which cell growth would be inhibited by 50% was determined (GI50 (nM)). Cell growth rate (%)=(T−C0)/(C−C0)×100, provided that T is equal to or greater than C0(T≥C0) Cell growth rate (%)=(T−C0)/C0×100, provided that T is less than C0(T<C0) C0: Luminescence level in each well when the compound is added (count per second) C: Luminescence level in each well when dimethyl sulfoxide is added alone (count per second) T: Luminescence level in each well when the test compound is added (count per second)
As control compounds, conventional Comparative Example A (WO 2010/056563 (Example 31)) and Comparative Example B having inhibitory activity against Akt were used.
The GI50 levels of representative compounds according to the present invention and reference compounds in RKO cells were evaluated, and the results are shown in Table 5.

[2] = system: HEC-6 cells (endometrial cancer cell lines); test: Cell growth suppression test on HEC-6 cells (CellTiter-Glo); assay type: cell-based; conditions: 72 h, read-out: Cell growth inhibition GI50, heading: Cell growth inhibition GI50, 3 days, table head prints μM, method says GI50 (nM)
Description: The in vitro cell growth suppression test on HEC-6 cells (endometrial cancer cell lines) was performed under the conditions described below.
HEC-6 cells (Health Science Research Resources Bank, Cell Number: JCRB1118) cultured in a MEM medium containing 15% FBS (GIBCO, Cat#: 10370) were seeded on a 384-well flat bottom microplate (CORNING, Cat#: 3571) at 500 cells/well (20 μl) and cultured in an incubator containing 5% carbon dioxide at 37° C. for 1 day. The compound according to the present invention subjected to serial dilution with dimethyl sulfoxide or dimethyl sulfoxide alone was added to a MEM medium containing 15% FBS. […] Thereafter, the luminescence level derived from viable cells in each well was assayed with the use of the Multimode Plate Reader (PerkinElmer, EnVision). […] Thereafter, the luminescence level derived from viable cells in each well was assayed with the use of the Multimode Plate Reader. […] Cell growth rate (%)=(T−C0)/(C−C0)×100, provided that T is equal to or greater than C0(T≥C0) Cell growth rate (%)=(T−C0)/C0×100, provided that T is less than C0(T<C0) C0: Luminescence level in each well when the compound is added (count per second) C: Luminescence level in each well when dimethyl sulfoxide is added alone (count per second) T: Luminescence level in each well when the test compound is added (count per second) […]

human Akt1 = human Akt1 (Homo sapiens (Human), UniProt P31749); test: Inhibitory effects on Akt1 kinase activity (TR-FRET, biotinylated Crosstide); assay type: biochemical; conditions: Akt1, ATP 150 μM, pre-incubation 120 minutes at 25° C.; read-out: AKT inhibitory activity IC50
Chain of human Akt1 (P31749 whole entry): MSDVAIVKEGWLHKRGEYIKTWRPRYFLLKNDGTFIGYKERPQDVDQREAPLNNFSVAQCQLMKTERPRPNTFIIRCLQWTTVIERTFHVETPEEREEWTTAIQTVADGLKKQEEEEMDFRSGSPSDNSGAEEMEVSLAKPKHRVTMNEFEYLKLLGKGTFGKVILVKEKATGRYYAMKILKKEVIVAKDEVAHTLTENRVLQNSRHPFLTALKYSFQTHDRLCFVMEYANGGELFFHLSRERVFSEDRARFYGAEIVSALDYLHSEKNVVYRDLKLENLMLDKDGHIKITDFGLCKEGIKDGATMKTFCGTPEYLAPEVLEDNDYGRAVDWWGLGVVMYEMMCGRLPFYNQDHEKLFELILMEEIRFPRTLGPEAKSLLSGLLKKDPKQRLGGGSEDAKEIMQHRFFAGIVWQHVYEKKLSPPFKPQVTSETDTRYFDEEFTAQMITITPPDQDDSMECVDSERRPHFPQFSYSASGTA
In short: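 Middle T-tagged human Akt1 from Sf9 cells, PDK1-activated, pre-incubated with compound 120 min at 25 °C (Tris pH 7.5); then 500 nM biotin-Crosstide, 10 mM MgCl2, 150 μM ATP for 60 min at 25 °C. Eu-anti-phospho-Crosstide/APC-SA TR-FRET 665/620 ratio; IC50 as 50% phosphorylation inhibition.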

GI50 [1]	GI50 [2]	IC50 (human Akt1)	Compound
1050 nM	1.04 µM		CN(C)CCn1cc(-c2ccc(F)c(C(F)(F)F)c2)nc1C1CCN(c2ncnc3c2C(C)(C)C(=O)N3)CC1 [Comparative Example A, reference compound]
2640 nM	2.92 µM	657 nM	CC(C)(C)NCCNc1cc(-c2cncc(F)c2)nc(C2CCN(c3ncnc4c3C(C)(C)C(=O)N4)CC2)c1 [Comparative Example B, 4-(4-(4-((2-(Tert-butylamino)ethyl)amino)-5′-fluoro-[2,3′-bipyridin]-6-yl)piperidin-1-yl)-5,5-dimethyl-5H-pyrrolo[2,3-d]pyrimidin-6(7H)-one, reference compound]
